In one data set the target is JAK2 (Homo sapiens, UniProt O60674). The experiment in a line: JAK2 biochemical potency. The conditions noted are these: read-out: JAK2 HTRF IC50. In general terms: TR-FRET usually uses a lanthanide donor and a delayed reading to cut background.
A further data set concerns the target T1, AURKB (Aurora B) enzyme (Homo sapiens, UniProt Q96GD4).
T1 construct: purchased Invitrogen PVR 130
The experiment in a line: Aurora B HTRF assay. Particulars: read-out: AuroraB IC50. It is filed as biochemical. Summed up:
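Enzyme (5 nM final) and ULight-labelled PLK Ser137 peptide (50 nM) reacted 1 h at room temperature; a 30 μM final component was also present. Detection used EDTA-containing buffer with europium anti-phospho-PLK(Ser137) antibody at 2 nM, 1 h, then time-resolved FRET readout.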

In the next data set the target is T2, Phospho Src(Y416) (Homo sapiens, UniProt P12931).
T2 construct: endogenous in cells; host or cells: Panc1
T2 sequence (P12931 whole entry): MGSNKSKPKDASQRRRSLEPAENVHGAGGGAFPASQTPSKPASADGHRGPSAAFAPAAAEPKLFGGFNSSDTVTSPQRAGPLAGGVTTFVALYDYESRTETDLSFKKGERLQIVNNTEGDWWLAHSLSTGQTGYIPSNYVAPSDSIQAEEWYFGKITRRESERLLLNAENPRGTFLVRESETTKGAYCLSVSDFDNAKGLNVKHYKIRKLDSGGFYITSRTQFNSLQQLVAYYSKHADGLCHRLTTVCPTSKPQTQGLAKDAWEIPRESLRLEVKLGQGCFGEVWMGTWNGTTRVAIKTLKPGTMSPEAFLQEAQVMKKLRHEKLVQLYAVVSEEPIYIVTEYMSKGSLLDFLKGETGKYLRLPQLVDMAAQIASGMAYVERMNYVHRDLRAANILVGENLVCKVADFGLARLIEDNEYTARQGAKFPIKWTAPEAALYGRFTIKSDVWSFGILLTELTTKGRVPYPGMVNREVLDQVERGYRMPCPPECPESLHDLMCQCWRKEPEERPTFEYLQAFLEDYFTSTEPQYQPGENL
In words: Phospho Src(Y416) Sandwich ELISA. Format: cell-based. The conditions noted are these: Panc1; read-out: pSrc EC50 (μM) Panc1. The protocol:
E. Phospho Src(Y416) Sandwich ELISA
Phospho Src(Y416) Sandwich ELISA kit was obtained from Cell Signaling Tech.
(i) Reagent Preparation • 1. All microwell strips were brought to rt before use. • 2. 1× Wash Buffer was prepared by diluting 20× Wash Buffer (included in each PathScan® Sandwich ELISA Kit) in MilliQ® water or equivalently purified water. • 3. 1× Cell Lysis Buffer from CST #9803: 20 mM Tris (pH 7.5), 150 mM NaCl, 1 mM ethylene diamine tetraacetate (EDTA), 1 mM ethylene glycol-bis(2-aminoethyl)-N,N,N′,N′-tetraacetic acid (EGTA), 1% Triton™ X-100, 2.5 mM sodium pyrophosphate, 1 mM b-glycerophosphate, 1 mM Na3VO4, 1 μg/mL leupeptin. This buffer was stored at 4° C. for short-term use (1-2 weeks).
(ii) Preparing Cell Lysates • 1. The media was aspirated. The cells were treated by adding fresh media containing inhibitor for 1 h. The compound of Example 214 was used as reference. • 2. The cells were harvested under non-denaturing conditions by removing media and rinsing cells once with ice-cold PBS. • 3. PBS was removed, 0.5 mL ice-cold 1× Cell Lysis Buffer plus 1 mM phenylmethylsulfonylfluoride (PMSF) was added to each plate (10 cm in diameter) and the plate incubated on ice for 5 min. • 4. The cells were scraped off of the plate, transferred to an appropriate tube, and kept on ice. • 5. The lysates were sonicated on ice. • 6. Microcentrifugation was performed for 10 min at 4° C. and the supernatant transferred to a new tube. The supernatant was the cell lysate and was stored at −80° C. in single-use aliquots.
(iii) Test Procedure • 1. After the microwell strips reached rt, the required number of microwells were broken off. The microwells were placed in the strip holder. Unused microwells were resealed and stored at 4° C. immediately. • 2. 100 μL of Sample Diluent (supplied in each PathScan® Sandwich ELISA Kit, blue color) was added to a micro centrifuge tube. 100 μL of cell lysate was transferred into the tube and vortexed for a few seconds. […] Individual data sheets for each kit provided information regarding an appropriate dilution factor for lysates and kit assay results. However, dilution factors were titrated when specific cell lysates are used. • 3. 100 μL of each diluted cell lysate were added to the appropriate well. It was then sealed with tape and pressed firmly onto top of microwells. The plate was incubated for 2 h at 37° C. Alternatively, the plate was incubated overnight at 4° C., which gave the best detection of target protein. • 4. The tape was gently removed and the wells washed: • a. The plate contents were discarded into a receptacle. • b. Each well was washed 4 times with 1× Wash Buffer, 200 μL. • c. For each wash, plates were struck on fresh towels hard enough to remove the residual solution in each well, but wells were not allowed to completely dry at any time. • d. The underside of all wells was cleaned with a lint-free tissue. • 5. 100 μL of Detection Antibody (green color) was added to each well, sealed with tape and the plate incubated for 1 h at 37° C. • 6. The wash procedure was repeated as in Step 4. • 7. 100 μL of HRP-linked secondary antibody (red color) was added to each well, sealed with tape and the plate incubated plate for 30 min at 37° C. • 8. The wash procedure was repeated as in Step 4. • 9. 100 μL of TMB Substrate was added to each well, sealed with tape and the plate incubated for 10 min at 37° C. or 30 min at 25° C. • 10. 100 μL of STOP Solution was added to each well and shaken gently for a few seconds. Initial color of positive reaction was blue, which changed to yellow upon addition of STOP Solution. • 11. The results were read. • a. Visual Determination—read within 30 min after adding STOP Solution. • b. Spectrophotometric Determination—the underside of wells were wiped with a lint-free tissue and absorbance read at 450 nm within 30 min after adding STOP Solution.
For orientation: In an ELISA, binding on a coated surface is turned into a signal by an enzyme label.

The target of data set [1] is T3, FAK phosphorylated at Y397 in HEK-FAK cell line overexpressing human FL FAK protein (Homo sapiens, UniProt Q05397).
T3 construct: expressed in transfected cells
T3 sequence (Q05397 whole entry): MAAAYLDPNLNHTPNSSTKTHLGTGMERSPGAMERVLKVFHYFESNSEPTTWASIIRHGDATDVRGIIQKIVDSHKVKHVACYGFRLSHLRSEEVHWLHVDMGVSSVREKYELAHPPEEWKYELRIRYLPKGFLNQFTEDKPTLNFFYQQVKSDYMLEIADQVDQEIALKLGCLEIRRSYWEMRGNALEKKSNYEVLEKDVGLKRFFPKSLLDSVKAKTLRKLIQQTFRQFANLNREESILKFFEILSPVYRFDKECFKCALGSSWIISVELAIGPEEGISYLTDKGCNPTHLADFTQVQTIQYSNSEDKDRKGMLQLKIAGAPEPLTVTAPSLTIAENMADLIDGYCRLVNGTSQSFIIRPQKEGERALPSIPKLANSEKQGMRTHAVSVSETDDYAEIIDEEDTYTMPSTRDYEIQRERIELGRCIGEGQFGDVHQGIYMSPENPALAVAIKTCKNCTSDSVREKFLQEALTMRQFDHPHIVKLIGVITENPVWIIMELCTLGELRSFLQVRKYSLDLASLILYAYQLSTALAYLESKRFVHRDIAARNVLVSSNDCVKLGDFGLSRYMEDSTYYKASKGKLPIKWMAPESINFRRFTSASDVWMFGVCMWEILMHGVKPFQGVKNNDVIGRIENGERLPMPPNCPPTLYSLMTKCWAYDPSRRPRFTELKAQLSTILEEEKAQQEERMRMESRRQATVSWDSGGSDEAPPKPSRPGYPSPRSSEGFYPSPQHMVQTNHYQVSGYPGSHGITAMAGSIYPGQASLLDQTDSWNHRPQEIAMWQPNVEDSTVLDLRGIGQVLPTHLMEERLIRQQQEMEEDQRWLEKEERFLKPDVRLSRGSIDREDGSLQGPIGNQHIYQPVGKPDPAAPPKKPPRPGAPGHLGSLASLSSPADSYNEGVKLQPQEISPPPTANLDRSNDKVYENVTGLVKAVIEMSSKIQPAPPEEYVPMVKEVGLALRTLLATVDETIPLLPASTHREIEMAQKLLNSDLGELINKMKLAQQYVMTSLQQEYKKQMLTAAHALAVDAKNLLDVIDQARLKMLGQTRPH
The experiment in a line: Cell based assay, Phospho-FAK ELISA. The conditions noted are these: HEK stb; read-out: pFAK EC50 (μM) HEK stb. In outline:
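Stable HEK293 line overexpressing full-length human FAK, kept under 0.8 mg/mL Zeocin. In lysates, FAK Y397 autophosphorylation was measured by sandwich ELISA: total-FAK capture antibody, biotinylated pY397-specific detection antibody, streptavidin-HRP with TMB substrate.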

A further data set deals with T4, recombinant human FAK1 (Homo sapiens, UniProt Q05397).
T4 construct: fused on or other part: N-terminal 6xHis tag
T4 sequence (Q05397 422-680 limits assumed): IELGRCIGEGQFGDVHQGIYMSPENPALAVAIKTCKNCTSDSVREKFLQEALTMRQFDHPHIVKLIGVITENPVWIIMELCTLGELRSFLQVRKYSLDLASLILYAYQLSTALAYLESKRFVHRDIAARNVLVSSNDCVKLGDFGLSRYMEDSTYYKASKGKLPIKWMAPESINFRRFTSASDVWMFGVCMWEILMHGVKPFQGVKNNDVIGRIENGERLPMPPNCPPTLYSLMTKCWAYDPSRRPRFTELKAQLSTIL
In words: FAK1 HTRF assay. Format: biochemical. In outline: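 IC50 values derive from HTRF % inhibition (ratio 665/620 nm, Eu–anti-phosphotyrosine 0.1 nM, SA-APC 12 nM). The kinase step ran 45 min at room temperature, pairing 10 nM His-FAK1(692–end) from baculovirus with 0.5 μM gastrin Tyr87 biotin-peptide and a reagent at 10 μM final, pH 7.4. Compound dilutions began at 10 μM.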

In data set [2] the test system is 4T1 orthotopic breast carcinoma. The conditions noted are these: cited from earlier work.
The subject of data set [3] is MIA PaCa-2 human pancreatic tumor. Particulars: oral administration, cited from earlier work.
In data set [4] the test system is panel of pancreatic cancer cell lines. The conditions noted are these: read-out: anti-proliferative IC50; cited from earlier work.
For data set [5], the system named is FAK autophosphorylation at Tyrosine397 and Akt phosphorylation at Serine473. The conditions noted are these: 4T1 breast carcinoma; cited from earlier work.
Data set [6] relates to prostate and pancreatic cancer xenograft. Particulars: prostate and pancreatic cancer xenograft models; cited from earlier work.
A further data set concerns cell migration. The conditions noted are these: concomitant with inhibition of focal adhesion turnover; cited from earlier work.
The test system of data set [7] is cell proliferation and apoptosis. The conditions noted are these: cited from earlier work.
The test system of data set [8] is tumor FAK Tyr-397 phosphorylation. The conditions noted are these: 100 mg/kg intraperitoneal, i.p.; cited from earlier work.
The conditions of data set [9]: 100 mg/kg intraperitoneal, i.p.; cited from earlier work.
Data set [10] deals with CSC population in 2 human breast cancer cell lines. Particulars: 2 human breast cancer cell lines in vitro and in xenografts; cited from earlier work.

T1 sequence (Q96GD4 whole entry): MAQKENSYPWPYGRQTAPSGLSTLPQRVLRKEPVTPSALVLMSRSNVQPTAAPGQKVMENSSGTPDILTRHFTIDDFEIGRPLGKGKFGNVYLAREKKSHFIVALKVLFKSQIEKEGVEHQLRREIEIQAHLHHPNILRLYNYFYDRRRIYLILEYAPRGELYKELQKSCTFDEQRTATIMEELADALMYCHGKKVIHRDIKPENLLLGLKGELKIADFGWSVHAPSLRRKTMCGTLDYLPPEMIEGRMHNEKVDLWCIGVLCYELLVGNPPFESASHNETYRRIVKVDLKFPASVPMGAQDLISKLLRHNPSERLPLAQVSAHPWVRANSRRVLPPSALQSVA
JAK2, sequence (O60674 whole entry, species assumed): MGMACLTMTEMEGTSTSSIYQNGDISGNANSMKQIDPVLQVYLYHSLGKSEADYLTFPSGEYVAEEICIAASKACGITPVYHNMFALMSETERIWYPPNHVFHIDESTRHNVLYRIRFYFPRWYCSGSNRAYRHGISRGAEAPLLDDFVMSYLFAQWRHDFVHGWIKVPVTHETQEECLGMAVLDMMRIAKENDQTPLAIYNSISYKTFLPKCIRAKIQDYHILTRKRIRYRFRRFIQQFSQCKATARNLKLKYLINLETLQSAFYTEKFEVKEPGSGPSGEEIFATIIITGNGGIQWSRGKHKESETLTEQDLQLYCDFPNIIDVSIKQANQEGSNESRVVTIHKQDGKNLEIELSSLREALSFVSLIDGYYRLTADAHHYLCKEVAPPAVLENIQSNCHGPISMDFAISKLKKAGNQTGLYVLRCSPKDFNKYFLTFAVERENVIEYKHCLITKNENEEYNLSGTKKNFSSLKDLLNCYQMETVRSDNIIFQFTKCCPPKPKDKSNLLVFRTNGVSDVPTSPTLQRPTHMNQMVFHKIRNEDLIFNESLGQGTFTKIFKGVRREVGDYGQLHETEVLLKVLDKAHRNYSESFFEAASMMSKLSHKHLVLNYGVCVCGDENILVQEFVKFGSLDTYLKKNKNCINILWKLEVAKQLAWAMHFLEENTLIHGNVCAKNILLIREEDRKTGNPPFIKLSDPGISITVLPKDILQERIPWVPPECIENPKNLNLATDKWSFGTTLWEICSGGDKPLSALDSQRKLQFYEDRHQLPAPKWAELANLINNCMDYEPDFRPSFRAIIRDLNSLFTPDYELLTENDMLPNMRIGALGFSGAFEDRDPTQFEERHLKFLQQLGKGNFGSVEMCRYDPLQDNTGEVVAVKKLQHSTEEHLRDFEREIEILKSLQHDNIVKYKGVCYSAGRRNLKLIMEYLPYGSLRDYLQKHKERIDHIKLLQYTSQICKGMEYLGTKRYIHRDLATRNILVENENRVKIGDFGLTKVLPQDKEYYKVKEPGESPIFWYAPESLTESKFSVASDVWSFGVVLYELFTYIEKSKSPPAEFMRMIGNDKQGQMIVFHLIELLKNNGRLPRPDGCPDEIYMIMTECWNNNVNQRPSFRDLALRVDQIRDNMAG

For orientation: IC50 means the concentration that inhibits the measured activity by half. What is called EC50 is the midpoint of the concentration-response curve. Turning to `O=C1CCc2cc(Nc3ncc4ccn(Cc5ccccc5OC(F)F)c4n3)ccc2N1` [Example 18], the 50% inhibitory concentration (IC50) at JAK2 and at AURKB (Aurora B) enzyme was under 0.02 µM throughout. Besides, at Phospho Src(Y416), the EC50 was over 1 µM.
As to `CN(c1ncccc1Cn1ccc2cnc(Nc3ccc(N4CCOCC4)cc3)nc21)S(C)(=O)=O` [Example 76], on JAK2, the IC50 was under 0.02 µM. Also, the EC50 on Phospho Src(Y416) is over 1 µM.
The corresponding values for `CN(c1ncccc1Cn1ccc2cnc(Nc3cccc(NC(=O)C(C)(C)O)c3)nc21)S(C)(=O)=O` [Example 79] are under 0.02 µM and over 1 µM.
Regarding `CN(c1ncccc1Cn1ccc2cnc(Nc3cccc(N4CCNCC4)c3)nc21)S(C)(=O)=O` [Example 176], the concentration for half-maximal inhibition (IC50) at JAK2 and at AURKB (Aurora B) enzyme was under 0.02 µM throughout. Further, on Phospho Src(Y416), the EC50 is over 1 µM.
Regarding `N#Cc1ccccc1S(=O)(=O)n1ncc2cnc(Nc3ccc(N4CCNCC4)cc3)cc21` [Example 191], the concentration for a half-maximal effect (EC50) (in data set [1]; at Phospho Src(Y416)) was over 1 µM throughout. Further, the IC50 on JAK2 is over 1 µM.
Turning to `CN(c1ncccc1Cn1ccc2cnc(Nc3ccc(N4CCNCC4)c(F)c3)nc21)S(C)(=O)=O` [Example 195], the half-maximal effective concentration (EC50) is over 1 µM in [1] and under 0.02 µM at Phospho Src(Y416). Moreover, the IC50 at JAK2 was under 0.02 µM.
For `CC(=O)Nc1ccc(Nc2ncc3ccn(S(=O)(=O)c4cccc5cccnc45)c3n2)cc1` [Example 307], the IC50 on JAK2, at AURKB (Aurora B) enzyme and at recombinant human FAK1 was under 0.02 µM throughout. Further, at Phospho Src(Y416), the EC50 was over 1 µM.
`O=S(=O)(c1cccc2cccnc12)n1ccc2cnc(Nc3ccc(N4CCC(O)CC4)cc3)nc21` [Example 310]: the half-maximal inhibitory concentration (IC50) on JAK2, on AURKB (Aurora B) enzyme and at recombinant human FAK1 was under 0.02 µM in each case. Further, the half-maximal effective concentration (EC50) at Phospho Src(Y416) was over 1 µM.
On to `CN(c1ccccc1Cn1ccc2cnc(Nc3ccc(C(=O)NCC(C)(C)O)c(F)c3)nc21)S(C)(=O)=O` [Example 508], for which the EC50 (in data set [1]; on Phospho Src(Y416)) was over 1 µM in each case. Also, at JAK2, the IC50 is under 0.02 µM.
Turning to `CN(c1ccccc1Cn1ccc2cnc(Nc3ccc4c(c3)CC(=O)N4)nc21)S(C)(=O)=O` [Example 513], the 50% inhibitory concentration (IC50) at JAK2, on AURKB (Aurora B) enzyme and at recombinant human FAK1 was under 0.02 µM in each case. The half-maximal effective concentration (EC50) at Phospho Src(Y416) was over 1 µM.
As to `CNC(=O)c1ccccc1Nc1nc(Nc2ccc(N3CCOCC3)cc2OC)ncc1Cl` [NVP-TAE226], the “4T1 murine breast tumor growth and metastasis to the lung” value in data set [2] (oral administration, dose-dependent) is “inhibited”. The body weight loss entry in [3] (MIA PaCa-2 model) is “no body weight loss”. In addition, the “MIA PaCa-2 human pancreatic tumor growth” value in data set [3] is listed as “efficiently inhibited”. Further, the IC50 in data set [4] was 0.76 µM. Further, in data set [5], the “Inhibition of FAK autophosphorylation at Tyrosine397 and Akt phosphorylation at Serine473” value is “observed in a dose-dependent manner”.
On to `CN(c1ncccc1CNc1nc(Nc2ccc3c(c2)CC(=O)N3)ncc1C(F)(F)F)S(C)(=O)=O` [PF-562,271, N-methyl-N-(3-(((2-((2-oxoindolin-5-yl)amino)-5-(trifluoromethyl)pyrimidin-4-yl)amino)methyl)pyridin-2-yl)methanesulfonamide], for which, in data set [6], the antitumor efficacy entry is “good antitumor efficacy and tumor regression”; the toxicity entry is listed as “no observed toxicity”.
Turning to `CS(=O)(=O)c1cccc(CNc2nc(Nc3ccc4c(c3)CCC(=O)N4)ncc2C(F)(F)F)c1` [PF-573,228], in the data set with cell migration, the “chemotactic and haptotactic migration” value is given as “inhibited”. The “effect on cell proliferation and apoptosis” value in [7] is “minimal to no effect”.
On to `CNC(=O)c1ccccc1Nc1cc(Nc2ccc(N3CCOCC3)cc2OC)ncc1C(F)(F)F` [PND-1186], for which the “syngeneic murine 4T1 orthotopic breast carcinoma tumor growth and spontaneous metastasis to lungs” value in data set [2] (mouse, in vivo) is recorded as “significantly inhibited”. In addition, in data set [8], the “duration of inhibition of tumor FAK Tyr-397 phosphorylation” value is given as 12 h. In addition, the “pharmacokinetics (PK)” value in data set [9] is reported as “promising”.
Regarding `CC(C)Cc1ccc([C@@H](C)C(=O)NS(C)(=O)=O)cc1` [Repertaxin], the CSC population result in [10] was “selectively depleted”.

Values taken from patent US20160222014A1, “COMPOUNDS FOR REGULATING FAK AND/OR SRC PATHWAYS” (ASANA BIOSCIENCES, LLC, priority 2013, published 2016).
